Laboratory results reported in patent publication US20080015386A1, “Crystal of L-Ornithine-Citric Acid Salt” (KYOWA HAKKO KOGYO CO., LTD., priority 2004, published 2008).

Settings: 25° C., relative humidity 75%, weight change measured until day 7; numerical values only in FIG. 1
Description: A saturated aqueous solution of sodium chloride (approximately 200 mL) was allowed to stand in a plastic desiccator at 25° C. for 24 hours (relative humidity was adjusted to 75%). […] The weighing vessel was allowed to stand in the desiccator with the humidity adjusted, and the weight change of the weighing vessel was measured over the course of time.
The hygroscopicity (hygroscopic degree) was calculated using the following formula (1) on the basis of the weight change at each measuring time. The measurement of the weight change of the weighing vessel was continued until day 7.
Hygroscopic rate (%)=W3−W2/W2−W1×100 (1)
W1=Weight (g) of a weighing vessel
W2=Weight (g) of a weighing vessel filled with crystals before the test
W3=Weight (g) of a weighing vessel filled with crystals after the test

NCCC[C@H](N)C(=O)O.NCCC[C@H](N)C(=O)O.O=C(O)CC(O)(CC(=O)O)C(=O)O [Example 1, L-ornithine-½ citric acid salt]
Hygroscopicity (hygroscopic rate): did not show notable hygroscopicity
